Here are results for six molecules from ChEMBL document CHEMBL3797194, “Benzimidazolone bioisosteres of potent GluN2B selective NMDA receptor antagonists” (Eur J Med Chem, 2016).

In assay [1] the target is Sigma non-opioid intracellular receptor 1 (Cavia porcellus, UniProt Q60492). The assay is described as follows: Displacement of [3H]-(+)-Pentazocine from sigma1 receptor in guinea pig brain homogenate incubated for 120 mins by solid scintillation counting analysis. The class given is tissue-based. (Displacement assays read how much labelled ligand stays bound in the presence of the test substance.)

Assay [2] can be described thus: Displacement of [3H]DTG from sigma2 receptor in rat liver homogenate incubated for 120 mins by solid scintillation counting analysis. It is filed as tissue-based.
Assay [3] has as its target T1, Glutamate receptor ionotropic, NMDA 2B (Homo sapiens, UniProt Q13224). The experiment in a line: Displacement of [3H]ifenprodil from recombinant human GluN2B expressed in mouse L(tk-) cell membranes incubated for 120 mins by microbeta scintillation counting analysis.
Target sequence in this assay (Q13224 whole entry): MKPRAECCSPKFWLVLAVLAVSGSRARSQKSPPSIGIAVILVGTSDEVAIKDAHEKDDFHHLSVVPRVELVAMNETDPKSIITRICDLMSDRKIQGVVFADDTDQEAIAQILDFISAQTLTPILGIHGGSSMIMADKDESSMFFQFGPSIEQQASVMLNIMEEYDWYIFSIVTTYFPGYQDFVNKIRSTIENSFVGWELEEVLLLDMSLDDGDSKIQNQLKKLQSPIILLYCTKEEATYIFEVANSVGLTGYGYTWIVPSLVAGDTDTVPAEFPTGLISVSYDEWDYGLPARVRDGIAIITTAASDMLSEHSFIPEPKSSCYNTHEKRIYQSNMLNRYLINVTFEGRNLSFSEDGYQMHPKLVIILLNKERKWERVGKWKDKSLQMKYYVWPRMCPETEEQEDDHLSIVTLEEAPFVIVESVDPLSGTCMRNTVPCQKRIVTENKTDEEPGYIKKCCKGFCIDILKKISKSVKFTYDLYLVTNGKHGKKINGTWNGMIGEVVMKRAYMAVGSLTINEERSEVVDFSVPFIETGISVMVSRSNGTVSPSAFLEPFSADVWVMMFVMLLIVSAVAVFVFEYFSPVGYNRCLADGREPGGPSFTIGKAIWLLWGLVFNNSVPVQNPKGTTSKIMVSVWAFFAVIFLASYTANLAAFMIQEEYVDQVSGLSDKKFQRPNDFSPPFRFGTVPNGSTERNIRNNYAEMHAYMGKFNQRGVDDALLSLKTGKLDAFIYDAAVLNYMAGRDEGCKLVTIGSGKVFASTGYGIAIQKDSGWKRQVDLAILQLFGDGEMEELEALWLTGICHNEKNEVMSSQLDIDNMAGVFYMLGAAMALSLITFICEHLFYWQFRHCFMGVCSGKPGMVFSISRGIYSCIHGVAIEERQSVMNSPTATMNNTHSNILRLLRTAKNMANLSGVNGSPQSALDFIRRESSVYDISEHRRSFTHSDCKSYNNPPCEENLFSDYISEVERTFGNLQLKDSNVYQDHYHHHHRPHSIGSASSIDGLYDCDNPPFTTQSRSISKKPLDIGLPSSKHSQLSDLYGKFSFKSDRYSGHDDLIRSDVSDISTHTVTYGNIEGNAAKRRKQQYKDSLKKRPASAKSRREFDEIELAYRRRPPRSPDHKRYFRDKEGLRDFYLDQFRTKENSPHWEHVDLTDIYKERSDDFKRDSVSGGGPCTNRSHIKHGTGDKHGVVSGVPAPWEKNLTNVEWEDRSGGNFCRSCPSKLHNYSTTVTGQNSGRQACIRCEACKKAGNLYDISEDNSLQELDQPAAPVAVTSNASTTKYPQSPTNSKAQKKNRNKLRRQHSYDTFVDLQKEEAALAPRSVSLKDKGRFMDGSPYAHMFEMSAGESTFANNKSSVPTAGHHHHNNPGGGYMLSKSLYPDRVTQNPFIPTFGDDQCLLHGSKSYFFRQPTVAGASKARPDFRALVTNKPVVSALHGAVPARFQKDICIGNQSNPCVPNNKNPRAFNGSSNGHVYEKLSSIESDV
Assay [4] has as its target Sigma non-opioid intracellular receptor 1 (Cavia porcellus) (UniProt Q60492). The assay is described as follows: Displacement of [3H]-(+)-Pentazocine from sigma1 receptor in guinea pig brain homogenate at 1 uM incubated for 120 mins by solid scintillation counting analysis. It is filed as tissue-based.
For another assay, the species on record is Rattus norvegicus. The experiment in a line: Displacement of [3H]DTG from sigma2 receptor in rat liver homogenate at 1 uM incubated for 120 mins by solid scintillation counting analysis. It is filed as tissue-based.
The target in assay [5] is T1, Glutamate receptor ionotropic, NMDA 2B. The assay is described as follows: Displacement of [3H]ifenprodil from recombinant human GluN2B expressed in mouse L(tk-) cell membranes at 1 uM incubated for 120 mins by microbeta scintillation counting analysis.
Target sequence in this assay (Q13224 27-1484 limits assumed): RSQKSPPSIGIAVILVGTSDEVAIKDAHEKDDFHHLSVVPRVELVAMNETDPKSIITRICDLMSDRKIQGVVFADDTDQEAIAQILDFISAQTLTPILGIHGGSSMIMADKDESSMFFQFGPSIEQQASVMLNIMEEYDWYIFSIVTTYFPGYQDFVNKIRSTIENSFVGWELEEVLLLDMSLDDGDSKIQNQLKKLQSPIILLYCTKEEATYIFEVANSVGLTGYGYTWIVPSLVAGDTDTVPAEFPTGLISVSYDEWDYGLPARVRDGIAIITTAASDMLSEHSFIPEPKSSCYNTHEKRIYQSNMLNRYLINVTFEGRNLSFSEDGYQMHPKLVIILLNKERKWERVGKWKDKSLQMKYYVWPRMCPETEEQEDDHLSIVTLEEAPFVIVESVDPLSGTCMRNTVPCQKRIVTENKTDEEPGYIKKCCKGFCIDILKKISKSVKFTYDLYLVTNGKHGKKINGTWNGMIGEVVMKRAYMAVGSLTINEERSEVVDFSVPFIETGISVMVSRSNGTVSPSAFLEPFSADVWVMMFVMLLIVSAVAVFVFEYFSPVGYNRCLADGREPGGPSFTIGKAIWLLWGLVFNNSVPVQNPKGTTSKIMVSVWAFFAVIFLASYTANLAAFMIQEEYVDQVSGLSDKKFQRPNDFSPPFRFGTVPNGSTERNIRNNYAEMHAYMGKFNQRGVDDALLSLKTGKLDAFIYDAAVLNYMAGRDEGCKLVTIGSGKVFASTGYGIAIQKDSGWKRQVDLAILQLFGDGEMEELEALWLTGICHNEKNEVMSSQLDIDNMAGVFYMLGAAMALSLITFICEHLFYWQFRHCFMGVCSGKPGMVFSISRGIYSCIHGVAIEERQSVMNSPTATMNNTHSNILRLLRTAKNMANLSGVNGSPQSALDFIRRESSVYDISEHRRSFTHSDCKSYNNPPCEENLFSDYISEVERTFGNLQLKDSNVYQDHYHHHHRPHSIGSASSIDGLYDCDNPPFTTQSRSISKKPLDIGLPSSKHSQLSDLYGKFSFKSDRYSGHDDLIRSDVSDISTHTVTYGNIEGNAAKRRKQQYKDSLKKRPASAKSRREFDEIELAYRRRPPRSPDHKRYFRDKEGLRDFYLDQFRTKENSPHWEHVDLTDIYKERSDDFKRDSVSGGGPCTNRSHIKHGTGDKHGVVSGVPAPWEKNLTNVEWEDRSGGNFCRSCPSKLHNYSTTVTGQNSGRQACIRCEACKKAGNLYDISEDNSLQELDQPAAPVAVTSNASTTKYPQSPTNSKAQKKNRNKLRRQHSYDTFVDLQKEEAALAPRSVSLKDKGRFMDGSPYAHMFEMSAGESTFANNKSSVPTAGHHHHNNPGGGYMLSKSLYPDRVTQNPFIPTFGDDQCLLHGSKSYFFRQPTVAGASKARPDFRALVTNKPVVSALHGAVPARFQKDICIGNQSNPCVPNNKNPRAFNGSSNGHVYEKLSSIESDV
Assay [6] shares this target. The experiment in a line: Binding affinity to GluN2B (unknown origin).
Target sequence in this assay (Q13224 whole entry): as the sequence (Q13224 whole entry) above

Sigma non-opioid intracellular receptor 1 (Cavia porcellus), sequence (Q60492 whole entry): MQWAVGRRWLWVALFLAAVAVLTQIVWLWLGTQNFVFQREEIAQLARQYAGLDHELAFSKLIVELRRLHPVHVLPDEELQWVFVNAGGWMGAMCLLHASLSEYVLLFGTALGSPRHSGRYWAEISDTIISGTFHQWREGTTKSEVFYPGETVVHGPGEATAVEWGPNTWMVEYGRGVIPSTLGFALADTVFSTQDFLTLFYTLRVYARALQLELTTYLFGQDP
Sigma non-opioid intracellular receptor 1, sequence (Q60492 whole entry): as above

In the case of `Cn1c(=O)n(C)c2cc3c(cc21)CCCC(NCCCc1ccccc1)C3` (racemic), the Ki in assay [1] came out at 4000 nM; in assay [2], 549 nM; in assay [3], 697 nM.
Regarding `Cn1c(=O)n(C)c2cc3c(cc21)CCC[C@@H](O)[C@@H]3NCCCc1ccccc1` (racemic), the values for the inhibition (in assay [4]; in the assay listed under Rattus norvegicus; in assay [5]) were 19%, 32% and 0%, respectively.
On the same counts, the results for `Cn1c(=O)n(C)c2cc3c(cc21)CCC[C@@H](O)[C@@H]3O` (racemic) are 0%, 18% and 18%.
For `Cn1c(=O)n(C)c2cc3c(cc21)CCC[C@H](O)[C@@H]3O` (racemic), the values for the inhibition (in assay [4]; in the assay listed under Rattus norvegicus; in assay [5]) were 11%, 5% and 0%, respectively.
With `O=c1[nH]c2ccc([S+]([O-])CCN3CCC(Cc4ccc(F)cc4)CC3)cc2o1` (centres undefined) [BESONPRODIL], the affinity in assay [6], expressed as Ki, was 30 nM.
Molecule `Cc1ccccc1NC(=N)Nc1ccccc1C` [DITOLYLGUANIDINE] yielded a Ki in assay [2] of 57.5 nM.

Usually Ki stands for a dissociation constant, usually derived from enzyme kinetics or from competition with a known ligand. Usually inhibition stands for the drop in the measured response relative to a control, in per cent.
